# Source: patent publication EP0582261A1, “Cephalosporin compounds and processes for the preparation thereof” (LUCKY LTD., priority 1992, dated 1994)
# Key:
# Test in all cases: MIC, two-fold dilution method on Müller-Hinton agar
# Assay type in all cases: cell-based
# Conditions in all cases: incubated at 37°C for 20 hours
# [1] = tested on: Enterobacter aerogenes ATCC 29751
# Description: (§1) The same procedures as described in Example 163 were repeated using 7-amino-1,8-dimethyl[1,3]imidazo[1,2-c] pyrimidine-5-thione prepared in Preparation Example 36 in place of 7-amino-1-methyl[1,3]imidazo[1,2-c]pyrimidine-5-thione to yield 190mg and 180mg of the title compound(a) and (b), respectively, as white solids.
# (§2) These MIC values were taken by employing a two-fold dilution method: that is, two-fold serial dilutions of each of the test compounds were made and dispersed in a Müller-Hinton agar medium; 2µl of the standard test strain which had the 10⁷ CFU(Colony Forming Unit) per ml was inoculated on the medium; and these were incubated at 37°C for 20 hours.
# [2] = tested on: Citrobacter freundii ATCC 8090
# Description: as §1, §2
# [3] = tested on: Klebsiella pneumoniae ATCC 10031
# Description: as §1, §2
# [4] = tested on: Proteus vulgaris ATCC 6059
# Description: as §1, §2
# [5] = tested on: Providencia rettgeri ATCC 9250
# Description: as §1, §2
# [6] = tested on: Streptococcus faecalis ATCC 29212
# Description: as §1, §2
# [7] = tested on: Escherichia coli ATCC 25922
# Description: as §1, §2
# [8] = tested on: Shigella flexneri ATCC 11836
# Description: as §1, §2
# [9] = tested on: Morganella morganii ATCC 8076h
# Description: as §1, §2
# [10] = tested on: Bacillus megaterium ATCC 9885
# Description: as §1, §2
# [11] = tested on: Escherichia coli ATCC 10536
# Description: as §1, §2
# [12] = tested on: Pseudomonas aeruginosa ATCC 25619
# Description: as §1, §2
# [13] = tested on: Staphylococcus aureus ATCC 6538p
# Description: as §1, §2
# [14] = tested on: Serratia marcescens ATCC 27117
# Description: as §1, §2
# [15] = tested on: Pseudomonas aeruginosa ATCC 10145
# Description: as §1, §2
# [16] = tested on: Micrococcus luteus ATCC 9341
# Description: as §1, §2
# [17] = tested on: Shigella sonnei ATCC 11060
# Description: as §1, §2
# [18] = tested on: Staphylococcus epidermidis ATCC 12228
# Description: as §1, §2
# [19] = tested on: Enterobacter cloacae ATCC 27508
# Description: as §1, §2
# [20] = tested on: Bacillus cereus ATCC 11778
# Description: as §1, §2
# [21] = tested on: Pseudomonas aeruginosa ATCC 27853
# Description: as §1, §2
# [22] = tested on: Salmonella typhimurium ATCC 14028
# Description: as §1, §2
# [23] = tested on: Proteus mirabilis ATCC 25933
# Description: as §1, §2
# [24] = tested on: Staphylococcus aureus ATCC 10537
# Description: as §1, §2
# [25] = tested on: Acinetobacter calcoaceticus ATCC 15473
# Description: as §1, §2
Compound,MIC values against the standard strains [1],MIC values against the standard strains [2],MIC values against the standard strains [3],MIC values against the standard strains [4],MIC values against the standard strains [5],MIC values against the standard strains [6],MIC values against the standard strains [7],MIC values against the standard strains [8],MIC values against the standard strains [9],MIC values against the standard strains [10],MIC values against the standard strains [11],MIC values against the standard strains [12],MIC values against the standard strains [13],MIC values against the standard strains [14],MIC values against the standard strains [15],MIC values against the standard strains [16],MIC values against the standard strains [17],MIC values against the standard strains [18],MIC values against the standard strains [19],MIC values against the standard strains [20],other results
"CCC(C)(O/N=C(\C(=O)NC1C(=O)N2C(C(=O)[O-])=C(CSc3nc(N)cc4n3nc(N)[n+]4C)CS[C@H]12)c1csc(N)n1)C(=O)O (stereo partly shown) [Exp. 96(b), 7-[(Z)-2-(2-aminothiazol-4-yl)-2-(2-carboxybut-2-oxyimino)acetamido]-3-(2,7-diamino-1-methyl[1,2,4]triazolo[1,5-c]pyrimidinium-5-yl)thiomethyl-3-cephem-4-carboxylate]",0.5 µg/mL,0.13 µg/mL,≤0.008 µg/mL,0.063 µg/mL,≤0.008 µg/mL,16 µg/mL,0.13 µg/mL,0.031 µg/mL,≤0.008 µg/mL,0.25 µg/mL,0.13 µg/mL,0.5 µg/mL,1 µg/mL,0.13 µg/mL,2 µg/mL,0.016 µg/mL,0.13 µg/mL,0.5 µg/mL,0.063 µg/mL,16 µg/mL,MIC values against the standard strains [21]: 1 µg/mL; MIC values against the standard strains [22]: 0.25 µg/mL; MIC values against the standard strains [23]: 0.13 µg/mL; MIC values against the standard strains [24]: 1 µg/mL; MIC values against the standard strains [25]: 4 µg/mL
"7-[(Z)-2-(2-aminothiazol-4-yl)-2-((R)-1-carboxyprop-1-oxyimino)acetamido]-3-(2,7-diamino-1-methyl[1,2,4]triazolo[1,5-c]pyrimidinium-5-yl)thiomethyl-3-cephem-4-carboxylate [Exp. 88]",0.13 µg/mL,0.13 µg/mL,≤0.008 µg/mL,0.063 µg/mL,≤0.008 µg/mL,8 µg/mL,0.063 µg/mL,0.031 µg/mL,≤0.008 µg/mL,0.031 µg/mL,0.13 µg/mL,0.5 µg/mL,0.13 µg/mL,0.25 µg/mL,1 µg/mL,≤0.008 µg/mL,0.063 µg/mL,0.031 µg/mL,≤0.008 µg/mL,8 µg/mL,MIC values against the standard strains [21]: 1 µg/mL; MIC values against the standard strains [22]: 0.13 µg/mL; MIC values against the standard strains [23]: 0.13 µg/mL; MIC values against the standard strains [24]: 0.13 µg/mL; MIC values against the standard strains [25]: 1 µg/mL
"7-[(Z)-2-(2-aminothiazol-4-yl)-2-(2-carboxyprop-2-oxyimino)acetamido]-3-(7-amino-1-methyl [1,2,4]triazolo[1,5-c]pyrimidinium-5-yl)thiomethyl-3-cephem-4-carboxylate [Exp. 1]",1 µg/mL,0.13 µg/mL,0.063 µg/mL,0.063 µg/mL,≤0.008 µg/mL,>128 µg/mL,0.13 µg/mL,0.031 µg/mL,≤0.008 µg/mL,0.25 µg/mL,0.063 µg/mL,1 µg/mL,4 µg/mL,0.25 µg/mL,2 µg/mL,0.13 µg/mL,0.13 µg/mL,1 µg/mL,0.016 µg/mL,128 µg/mL,MIC values against the standard strains [21]: 1 µg/mL; MIC values against the standard strains [22]: 0.25 µg/mL; MIC values against the standard strains [23]: 0.13 µg/mL; MIC values against the standard strains [24]: 4 µg/mL; MIC values against the standard strains [25]: 4 µg/mL
"7-[(Z)-2-(2-aminothiazol-4-yl)-2-(1-carboxycyclopentoxyimino)acetamido]-3-(2,7-diamino-1-methyl [1,2,4]triazolo[1,5-c]pyrimidinium-5-yl)thiomethyl-3-cephem-4-carboxylate [Exp. 84]",0.25 µg/mL,0.063 µg/mL,0.063 µg/mL,0.063 µg/mL,≤0.008 µg/mL,32 µg/mL,0.063 µg/mL,0.063 µg/mL,≤0.008 µg/mL,0.25 µg/mL,0.063 µg/mL,1 µg/mL,0.25 µg/mL,0.13 µg/mL,2 µg/mL,0.016 µg/mL,0.13 µg/mL,0.5 µg/mL,≤0.008 µg/mL,32 µg/mL,MIC values against the standard strains [21]: 1 µg/mL; MIC values against the standard strains [22]: 0.13 µg/mL; MIC values against the standard strains [23]: 0.063 µg/mL; MIC values against the standard strains [24]: 0.25 µg/mL; MIC values against the standard strains [25]: 2 µg/mL
